Where a SMILES comes first, the peptide text is derived from it. [ ]: non-standard residue; d: D form. The star is where a group is joined. Nle = CCCC[C@H](N)C(=O)O; Hexanoyl = CCCCCC(=O)*; Ahx = NCCCCCC(=O)O
Legend:
hippocampal neurons [1] = assay: Dendritic spine head width in hippocampal neurons; type: cell-based, rat; details: 10^−12 M; control 0.67 μm
From the text: Neurons were transfected with mRFP-β-actin on day in vitro 6 (DIV6) using LipofectAMINE™ 2000 (Invitrogen) according to the manufacturer's protocol. This protocol yielded the desired 3-5% transfection efficiency thus enabling the visualization of individual neurons. Higher efficiencies obscured the dendritic arbor of individual neurons. Expression of fluorescently tagged actin allowed clear visualization of dendritic spines, as dendritic spines are enriched in actin. On DIV7 the cells were treated with vehicle (H20) or peptides (as described in the text) added to media. […] Slides were dried for at least 20 hours at 4° C. and fluorescent images were obtained with Slidebook 4.2 Digital Microscopy Software driving an Olympus IX81 inverted confocal microscope with a 60× oil immersion lens, NA 1.4 and resolution 0.280 μm Dendritic spine density was measured on primary and secondary dendrites at a distance of at least 150 μm from the soma. Five 50 μm long segments of dendrite from at least 10 neurons per data point were analyzed for each data point reported. […] Dendrite length was determined using the National Institutes of Health's Image J 1.41o program (NIH, Bethesda, Md.) and the neurite tracing program Neuron J (Meijering, Jacob et al. 2004) Spines were manually counted. […]

hippocampal neurons [2] = assay: Immunocytochemistry: correlation of spines to synaptic markers (VGLUT1, Synapsin, PSD-95); type: cell-based, rat; details: 5 days; for Number of spines/50 μm (PSD-95 staining experiment) / Number of spines/50 μm (Synapsin staining experiment) / Number of spines/50 μm (VGLUT1 staining experiment): 10^−12 M, N=25
Experimental: (§1) Transfected neurons were treated, fixed and stained. Briefly, cells were permeablized with 0.1% Triton X-100 detergent (Bio-Rad; Hercules, Calif.) for 10 minutes. An 8% bovine serum albumin (Intergen Company; Burlington, Mass.) in PBS was used to prevent non-specific binding for one hour at R.T.; Primary antibody incubations were at a 1:2500 dilution (see below) in 1% BSA in PBS at 4° C. overnight. Secondary antibody, 1:3000 Alexafluor 488 goat-anti-mouse (Invitrogen: Carlsbad, Calif.) was applied for two hours at room temperature. Coverslips were mounted with ProLong Gold anti-fade reagent (Invitrogen; Carlsbad, Calif.) and all washes were done with PBS. Imaging and analysis were performed as described above. For presynaptic excitatory transmission the VGLUT1 (Synaptic Systems, Goettingen, Germany) marker (Balschun, Moechars et al.) was employed and for general presynaptic transmission synapsinl (Synaptic Systems, Goettingen, Germany) (Ferreira and Rapoport 2002) was applied. A postsynaptic function was established by PSD-95 (Milipore, Billerica, Mass.) (El-Husseini, Schnell et al. 2000). In each instance the total number of spines was counted for the treatment groups, control, Nle1-AngIV and Dihexa, to ensure an active phenotype. The total number of actin enriched spines adjacent to VGLUT1 or Synapsin were counted and converted to a percentage as the percent correlation of treatment-induced spines to presynaptic markers is a strong indicator of ability to transmit excitatory signals.
as §1, with “fixed and stained as previously described in Chapter two. Briefly, cells” for “fixed and stained. Briefly, cells”, “enriched spines (red) adjacent to” for “enriched spines adjacent to”

Row | Compound | average spine head width (hippocampal neurons [1]) [μm] | Number of spines/50 μm (PSD-95 staining experiment) (hippocampal neurons [2]) [spines/50 μm] | Number of spines/50 μm (Synapsin staining experiment) (hippocampal neurons [2]) [spines/50 μm] | Number of spines/50 μm (VGLUT1 staining experiment) (hippocampal neurons [2]) [spines/50 μm] | correlation between presynaptic marker Synapsin and postsynaptic spines (hippocampal neurons [2]; HGF 10 ng/ml, vehicle 94%) [%]
1 | CCCCCC(=O)N[C@@H](Cc1ccc(O)cc1)C(=O)N[C@H](C(=O)NCCCCCC(N)=O)[C@@H](C)CC [Dihexa, N-hexanoic-Tyr-Ile-(6)-aminohexanoic amide] (Hexanoyl-Tyr-Ile-[Ahx]-NH2) | 0.80 | 43 | 37 | 44 | –
2 | CCCC[C@H](N)C(=O)N[C@@H](Cc1ccc(O)cc1)C(=O)N[C@H](C(=O)N[C@@H](Cc1c[nH]cn1)C(=O)N1CCC[C@H]1C(=O)N[C@@H](Cc1ccccc1)C(=O)O)[C@@H](C)CC [Nle1-AngIV, reference compound] (H-[Nle]YIHPF-OH; N-terminus and C-terminus assumed) | 0.87 | 36 | 31 | 39 | –
3 | HGF: recombinant hepatocyte growth factor (R&D Systems), ligand of c-Met | – | – | – | – | 98
